This is an account of results in ChEMBL document CHEMBL1155121, “4-Hydroxy-5-pyrrolinone-3-carboxamide HIV-1 integrase inhibitors” (Bioorg Med Chem Lett, 2008).

Activity calls are given as the source filed them. The rule behind the calls is not given here. Bounds are passed on as bounds.

Series [1] relates to Human immunodeficiency virus 1. Put plainly: Antiviral activity against HIV1 in human MT4 cells at 25 uM. Format: functional.
Series [2] deals with Human immunodeficiency virus type 1 integrase (Human immunodeficiency virus 1, UniProt Q7ZJM1). Put plainly: Inhibition of recombinant HIV1 integrase strand transfer activity.
Sequence of Human immunodeficiency virus type 1 integrase (Q7ZJM1 whole entry): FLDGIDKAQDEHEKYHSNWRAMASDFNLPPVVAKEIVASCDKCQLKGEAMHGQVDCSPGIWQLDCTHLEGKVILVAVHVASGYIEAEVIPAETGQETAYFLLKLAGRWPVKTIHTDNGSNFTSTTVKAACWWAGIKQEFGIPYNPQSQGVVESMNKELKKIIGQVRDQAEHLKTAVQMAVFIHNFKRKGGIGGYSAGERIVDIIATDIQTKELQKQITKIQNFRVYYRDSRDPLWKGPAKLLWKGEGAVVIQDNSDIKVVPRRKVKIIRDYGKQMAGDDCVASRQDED
The subject of the next series is MT4. Put plainly: Cytotoxicity against human MT4 cells up to 20 uM. The series is classed as cell-based.
The test system of another series is Plasma. Put plainly: Fraction unbound in human plasma. Format: ADME, cell-free.

Broadly, the IC50 is the concentration that gives 50% inhibition. For the molecule `O=C(NCc1ccc(F)cc1)C1=C(O)C(=O)N(CCCc2ccccc2)C1`, the outcome in series [1] was inactive. The IC50 in series [2] came out at 5 nM. The Activity entry in the series with MT4 is “Not Active”.

For `O=C(NCc1ccc(F)cc1)C1=C(O)C(=O)N(CCN2CCCCC2)C1`, the outcome in series [1] was inactive. For the same molecule, the IC50 in series [2] is more than 1000 nM. Further, in the series on MT4, the Activity result was “Not Active”.

With `O=C(NCc1ccc(F)cc1)C1=C(O)C(=O)N(Cc2ccccn2)C1`, the outcome in series [1] was inactive. The molecule also returned a Fu in the series on Plasma of less than 1%. Further, the IC50 in series [2] stood at 94 nM. In the series on MT4, the Activity entry was “Not Active”.

`O=C(NCc1ccc(F)cc1)C1=C(O)C(=O)N2CCCCC12` (stereo not drawn): the figures for the Activity (in series [1]; in the series on MT4) were 35% and “Not Active”, respectively. Besides, the half-inhibitory concentration (IC50) in series [2] was 18 nM.

As for `Cc1cccc(CN2CC(C(=O)NCc3ccc(F)cc3)=C(O)C2=O)c1`, the outcome in series [1] was inactive. Besides, the IC50 in series [2] worked out at 6 nM. Also, the Activity entry in the series with MT4 is listed as “Not Active”.

As to `O=C(NCc1ccc(F)cc1)C1=C(O)C(=O)N(Cc2ccccc2)C1`, the result in series [1] was inactive. Further, the IC50 in series [2] stood at 100 nM. Besides, the Activity result in the series with MT4 is “Not Active”.

For `CN1C(=O)C(O)=C(C(=O)NCc2ccc(F)cc2)C1c1ccccc1` (stereo not drawn), in series [1], the outcome was inactive. Also, the IC50 in series [2] was more than 1000 nM. Besides, in the series with MT4, the Activity result is “Not Active”.

Consider `O=C(NCc1ccc(F)cc1)C1=C(O)C(=O)N(CCN2CCOCC2)C1C(=O)NCc1ccc(F)cc1` (stereo not drawn), for which the result in series [1] was inactive. Further, in series [2], the IC50 was more than 1000 nM. In addition, the Activity result in the series on MT4 is given as “Not Active”.

`COc1ccccc1CCN1CC(C(=O)NCc2ccc(F)cc2)=C(O)C1=O`: the outcome in series [1] was inactive. Further, the IC50 in series [2] was determined as 4 nM. Further, the Activity entry with MT4 is listed as “Not Active”.
